One molecule from publication PMC5540490, “Plasma concentrations of caspofungin in a critically ill patient with morbid obesity” (Critical Care, 2017) can be followed below.

Data set [1] is described as follows: Plasma/serum concentrations of caspofungin in a critically ill patient with morbid obesity. Conditions: male, human, plasma, 100 mg/day; for Cmax: read-out: Cpeak. In kind it is in vivo. The source says: The aim of the study was to describe the pharmacokinetic behaviour of caspofungin in a critically ill patient with morbid obesity who received doses of caspofungin higher than labelled doses.
(§1) A morbidly obese person (BMI = 50 kg/m^2) was admitted to our ICU after surgical treatment of anastomotic leak in the postoperative period of elective laparoscopic bariatric surgery. The patient was in septic shock, with Candida multicolonization and other risk factors of invasive candidiasis. We decided to start antimicrobial treatment, including meropenem, linezolid and caspofungin. With the intention of maximizing the potential effectiveness of antifungal treatment, caspofungin at a dose of 100 mg/day was chosen. The caspofungin dose was calculated using a population pharmacokinetic model. Target AUC/MIC was set at 860 and therefore AUC values above 107 mg*h/L were necessary assuming MIC = 0.125 mg/L [2]. […] The manufacturer recommends caspofungin dose reduction when AUC values are above 210 mg*h/L and, accordingly, drug exposure was considered safe.

Data set [2] can be described thus: Clinical course and tolerability of caspofungin treatment in the patient. The format is in vivo, human. The following applies: 100 mg/day for 14 days; one patient.
Text: as §1

Where [3] appears, read: three days later, one morbidly obese ICU patient.

A word on the AUC: it is the area under the concentration-time curve, a measure of exposure. A lower AUC goes with less exposure.

SMILES strings stand for the structures. Read-outs that look alike come from different tables or passages of the source.

Take `CC[C@H](C)C[C@H](C)CCCCCCCCC(=O)N[C@H]1C[C@@H](O)[C@@H](NCCN)NC(=O)[C@@H]2[C@@H](O)CCN2C(=O)[C@H]([C@H](O)CCN)NC(=O)[C@H]([C@H](O)[C@@H](O)c2ccc(O)cc2)NC(=O)[C@@H]2C[C@@H](O)CN2C(=O)[C@H]([C@@H](C)O)NC1=O` [caspofungin]: the AUC amounted to 116 µg·h/mL in data set [1] (after the first dose, one morbidly obese ICU patient) and 140 µg·h/mL in data set [1] (setting [3]). Moreover, the Cmax in data set [1] (after the first dose, one morbidly obese ICU patient (BMI 50 kg/m^2) in septic shock) is 4510 ng/mL; in data set [1] (setting [3]), 5970 ng/mL. For the same molecule, in data set [1] (three days later, one morbidly obese ICU patient, read-out: Ctrough), the level at 72 h stood at 1760 ng/mL. For the same molecule, the “Adverse effects related to the drug” value in data set [2] is “without any adverse effects”.
